We go through 3 compounds from ChEMBL document CHEMBL3872258, “Challenges in the development of an M4 PAM in vivo tool compound: The discovery of VU0467154 and unexpected DMPK profiles of close analogs” (Bioorg Med Chem Lett, 2017).

Data set [1] is described as follows: Intrinsic clearance in rat. The format is ADME.
Data set [2] in a line: Unbound fraction in rat plasma. The format is ADME, cell-free.
Data set [3] in a line: Unbound fraction in human plasma. The format is ADME, cell-free.
Data set [4] can be described thus: Unbound fraction in rat brain. The following applies: for fraction unbound: brain. The format is ADME, tissue-based.
The target in data set [5] is T1, Cytochrome P450 1A2 (Homo sapiens, UniProt P05177).
T1 sequence (P05177 whole entry): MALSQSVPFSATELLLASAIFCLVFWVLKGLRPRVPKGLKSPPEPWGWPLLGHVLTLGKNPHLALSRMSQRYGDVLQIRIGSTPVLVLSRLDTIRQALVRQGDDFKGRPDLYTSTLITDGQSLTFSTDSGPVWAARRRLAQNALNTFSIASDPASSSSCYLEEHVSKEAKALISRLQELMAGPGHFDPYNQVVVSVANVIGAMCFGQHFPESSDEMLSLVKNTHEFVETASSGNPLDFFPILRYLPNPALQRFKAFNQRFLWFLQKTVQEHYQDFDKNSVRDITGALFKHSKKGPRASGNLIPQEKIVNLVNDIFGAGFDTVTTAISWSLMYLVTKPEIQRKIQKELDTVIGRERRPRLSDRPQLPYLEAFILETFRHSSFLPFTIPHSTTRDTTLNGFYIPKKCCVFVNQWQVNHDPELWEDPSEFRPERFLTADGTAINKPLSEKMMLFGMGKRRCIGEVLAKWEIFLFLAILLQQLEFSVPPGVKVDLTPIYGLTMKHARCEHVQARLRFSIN
The experiment in a line: Inhibition of CYP1A2 (unknown origin). The format is ADME.

Data set [6] has as its system Rattus norvegicus. The experiment in a line: Reversal of amphetamine-induced hyperlocomotion in Sprague-Dawley rat at 10 mg/kg, po administered 30 mins after habituation in the chamber followed by amphetamine injection measured for 60 mins. The format is functional.
The target in data set [7] is Muscarinic acetylcholine receptor M3 (Homo sapiens, UniProt P20309). The experiment in a line: Displacement of [3H]-N-Methylscopolamine from human M3 receptor expressed in CHOK1 cells. The format is cell-based, CHO-K1.
Sequence of Muscarinic acetylcholine receptor M3 (P20309 whole entry): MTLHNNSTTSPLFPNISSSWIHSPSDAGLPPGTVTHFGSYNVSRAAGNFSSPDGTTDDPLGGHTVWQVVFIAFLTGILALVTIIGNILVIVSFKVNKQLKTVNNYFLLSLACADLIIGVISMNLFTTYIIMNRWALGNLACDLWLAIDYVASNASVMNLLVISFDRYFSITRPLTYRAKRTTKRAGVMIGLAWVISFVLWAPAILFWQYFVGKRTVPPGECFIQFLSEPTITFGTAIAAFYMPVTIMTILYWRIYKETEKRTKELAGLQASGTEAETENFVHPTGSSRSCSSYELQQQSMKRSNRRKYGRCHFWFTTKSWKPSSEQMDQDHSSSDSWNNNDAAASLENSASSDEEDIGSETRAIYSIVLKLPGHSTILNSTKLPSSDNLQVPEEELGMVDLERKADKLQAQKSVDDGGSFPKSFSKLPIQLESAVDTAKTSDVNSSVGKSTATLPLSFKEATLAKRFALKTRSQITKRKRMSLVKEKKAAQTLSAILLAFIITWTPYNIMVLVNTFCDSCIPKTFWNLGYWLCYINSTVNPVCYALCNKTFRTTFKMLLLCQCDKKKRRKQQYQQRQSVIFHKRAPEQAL
Data set [8] addresses T2, Muscarinic acetylcholine receptor M5 (Homo sapiens, UniProt P08912).
T2 sequence (P08912 whole entry): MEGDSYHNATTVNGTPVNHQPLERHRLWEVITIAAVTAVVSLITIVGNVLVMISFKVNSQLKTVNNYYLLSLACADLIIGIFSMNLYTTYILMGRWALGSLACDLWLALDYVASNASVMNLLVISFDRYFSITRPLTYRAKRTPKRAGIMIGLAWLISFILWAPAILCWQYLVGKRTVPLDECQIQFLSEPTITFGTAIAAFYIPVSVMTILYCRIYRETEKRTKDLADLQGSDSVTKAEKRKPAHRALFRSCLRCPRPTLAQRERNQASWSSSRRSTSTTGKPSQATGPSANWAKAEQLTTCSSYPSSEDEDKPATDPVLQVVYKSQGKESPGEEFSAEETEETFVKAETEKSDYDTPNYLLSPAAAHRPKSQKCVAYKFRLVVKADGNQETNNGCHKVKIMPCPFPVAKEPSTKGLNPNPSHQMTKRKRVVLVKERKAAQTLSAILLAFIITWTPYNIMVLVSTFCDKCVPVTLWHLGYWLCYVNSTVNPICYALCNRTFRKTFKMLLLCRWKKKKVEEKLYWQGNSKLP
Nature of the data set: Binding affinity to human M5 receptor by radio-ligand binding assay.

Data set [9] concerns the target T3, Muscarinic acetylcholine receptor M1 (Rattus norvegicus, UniProt P08482).
T3 sequence (P08482 whole entry): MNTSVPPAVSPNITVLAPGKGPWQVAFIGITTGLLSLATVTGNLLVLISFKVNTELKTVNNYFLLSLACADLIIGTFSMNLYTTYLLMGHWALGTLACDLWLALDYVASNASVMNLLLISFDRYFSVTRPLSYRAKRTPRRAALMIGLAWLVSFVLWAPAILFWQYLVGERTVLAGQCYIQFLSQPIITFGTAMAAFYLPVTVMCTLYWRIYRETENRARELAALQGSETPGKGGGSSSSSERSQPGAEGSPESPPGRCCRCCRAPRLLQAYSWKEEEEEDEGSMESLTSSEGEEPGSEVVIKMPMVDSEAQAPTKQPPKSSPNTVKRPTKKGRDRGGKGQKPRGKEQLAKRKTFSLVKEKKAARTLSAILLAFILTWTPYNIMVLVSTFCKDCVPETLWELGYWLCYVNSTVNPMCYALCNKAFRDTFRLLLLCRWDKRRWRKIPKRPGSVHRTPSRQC
The experiment in a line: Binding affinity to rat M1 receptor by radio-ligand binding assay.

Data set [10] concerns the target T4, Muscarinic acetylcholine receptor M5 (Rattus norvegicus, UniProt P08911).
T4 sequence (P08911 whole entry): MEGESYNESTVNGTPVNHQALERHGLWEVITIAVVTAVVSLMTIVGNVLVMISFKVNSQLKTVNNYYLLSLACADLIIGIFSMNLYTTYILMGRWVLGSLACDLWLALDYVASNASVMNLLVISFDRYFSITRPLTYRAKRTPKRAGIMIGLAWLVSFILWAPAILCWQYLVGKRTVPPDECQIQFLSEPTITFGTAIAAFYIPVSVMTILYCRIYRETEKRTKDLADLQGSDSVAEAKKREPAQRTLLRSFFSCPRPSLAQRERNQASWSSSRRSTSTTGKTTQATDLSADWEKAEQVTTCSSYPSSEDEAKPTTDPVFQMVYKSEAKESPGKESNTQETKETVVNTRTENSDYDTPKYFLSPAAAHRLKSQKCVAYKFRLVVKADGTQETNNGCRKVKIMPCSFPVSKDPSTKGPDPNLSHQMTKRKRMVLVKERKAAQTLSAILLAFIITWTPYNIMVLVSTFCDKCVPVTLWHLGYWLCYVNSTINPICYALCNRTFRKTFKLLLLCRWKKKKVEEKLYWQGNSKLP
Nature of the data set: Binding affinity to rat M5 receptor by radio-ligand binding assay.

Data set [11] is described as follows: Ratio of total drug level in Sprague-Dawley rat brain to plasma at 0.20-0.25 mg/kg, iv at 0.25 hrs.
Data set [12] addresses T5, Muscarinic acetylcholine receptor M4 (Rattus norvegicus, UniProt P08485).
T5 sequence (P08485 whole entry): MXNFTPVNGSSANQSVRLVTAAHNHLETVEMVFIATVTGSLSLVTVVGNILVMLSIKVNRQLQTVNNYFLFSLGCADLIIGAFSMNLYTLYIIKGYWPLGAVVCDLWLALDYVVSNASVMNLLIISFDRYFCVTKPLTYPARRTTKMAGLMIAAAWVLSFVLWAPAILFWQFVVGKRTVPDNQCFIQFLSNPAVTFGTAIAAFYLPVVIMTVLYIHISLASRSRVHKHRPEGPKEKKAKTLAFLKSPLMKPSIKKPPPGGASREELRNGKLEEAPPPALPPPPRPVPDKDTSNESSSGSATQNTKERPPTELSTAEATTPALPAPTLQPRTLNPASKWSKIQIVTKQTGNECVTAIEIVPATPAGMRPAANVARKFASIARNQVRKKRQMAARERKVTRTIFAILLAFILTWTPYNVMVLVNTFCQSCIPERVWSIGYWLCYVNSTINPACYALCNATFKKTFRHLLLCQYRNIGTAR
The experiment in a line: Positive allosteric modulation of rat M4 receptor expressed in CHO cells co-expressing Gqui5 by calcium mobilization assay. The format is functional, cell-based. (A change in cytosolic calcium serves as a functional read-out for many receptors and channels.)

The target in data set [13] is Sodium-dependent serotonin transporter (Homo sapiens, UniProt P31645). Nature of the data set: Displacement of [3H]-Paroxetine from recombinant human SERT expressed in HEK293 cells. The format is cell-based.
Sequence of Sodium-dependent serotonin transporter (P31645 whole entry): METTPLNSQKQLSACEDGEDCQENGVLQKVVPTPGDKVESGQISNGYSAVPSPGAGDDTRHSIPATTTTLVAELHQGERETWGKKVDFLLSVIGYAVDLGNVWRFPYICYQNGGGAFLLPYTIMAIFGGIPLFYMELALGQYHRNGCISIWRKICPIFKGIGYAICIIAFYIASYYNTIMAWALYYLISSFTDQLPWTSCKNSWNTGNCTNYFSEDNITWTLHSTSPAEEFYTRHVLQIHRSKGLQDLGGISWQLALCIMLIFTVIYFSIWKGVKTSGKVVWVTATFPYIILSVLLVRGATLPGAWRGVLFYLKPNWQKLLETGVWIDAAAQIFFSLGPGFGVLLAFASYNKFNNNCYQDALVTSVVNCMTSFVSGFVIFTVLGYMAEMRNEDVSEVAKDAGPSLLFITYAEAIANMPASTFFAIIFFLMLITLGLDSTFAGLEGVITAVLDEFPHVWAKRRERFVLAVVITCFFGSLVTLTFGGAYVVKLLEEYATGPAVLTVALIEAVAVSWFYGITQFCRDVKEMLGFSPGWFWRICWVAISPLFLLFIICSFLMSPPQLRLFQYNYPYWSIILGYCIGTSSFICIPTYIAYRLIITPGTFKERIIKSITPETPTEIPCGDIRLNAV

pEC50, pIC50: −log10 of the molar value. A value given as a limit tells only on which side of the number the result lay.

In [1], `Cc1nnc2sc(C(=O)NCc3ccc(S(=O)(=O)C(F)(F)F)cc3)c(N)c2c1C` showed a CLint scaled of 47.7 mL/min/kg. The compound also yielded a fraction unbound in data set [2] of 0.031. Moreover, the Fu in data set [3] is recorded as 0.019; in data set [4] it was 0.067. Further, the pIC50 in data set [5] was less than 4.52. Also, the Activity in [6] is recorded as 55.3%. Besides, the pEC50 in data set [7], in [8], in data set [9] and in data set [10] was less than 4.52 each time. For the same compound, in data set [11], the Kp came to 0.49.
On to `Cc1nnc2sc(C(=O)NCc3ccc(S(=O)(=O)C(F)F)cc3)c(N)c2c1C`, for which the pEC50 is 7.75 in [12]; less than 4.52 in data set [7]; less than 4.52 in [8]; less than 4.52 in [9]; less than 4.52 in data set [10]. The CLint scaled in [1] is 48.1 mL/min/kg. Also, the Fu in [2] was 0.066; in data set [3], 0.053. In [4], this compound came in with a fraction unbound of 0.062. Moreover, the pIC50 in data set [5] was less than 4.52; in data set [13], 6.22. In [6], the Activity was found to be 49.3%. In addition, the Kp in [11] is listed as 0.11.
On to `Cc1nnc2sc(C(=O)NCc3ccc(S(F)(F)(F)(F)F)cc3)c(N)c2c1C`, for which the pEC50 in data set [12] is 7.52; in [7] it was less than 4.52; in data set [8] it was less than 4.52; in [9], less than 4.52; in data set [10], less than 4.52. For the same compound, the CLint scaled in data set [1] stood at 95.9 mL/min/kg. Also, the Fu in data set [3] was 0.01. In [4], this compound had a fraction unbound of 0.004. Besides, the pIC50 in data set [5] was less than 4.52; in data set [13], 6.28. The Activity in [6] is on record as 66.3%. The Kp in [11] is on record as 1.

The term CLint scaled denotes the rate of metabolic loss divided by the concentration. Higher therefore signals rapid turnover. One may read the fraction unbound as the share of the substance not bound to proteins or other matrix. A low value points to extensive binding. What is called pIC50 is the negative decadic logarithm of the IC50, by convention in mol/L. The pEC50 is −log10 of the EC50, conventionally taken in molar units. By Kp is commonly meant the ratio of the level in a tissue or fluid to that in plasma or blood.
